Laboratory results from ChEMBL document CHEMBL4373729, “Natural dimers of coumarin, chalcones, and resveratrol and the link between structure and pharmacology” (Eur J Med Chem, 2019).
≈ marks a conversion by molar mass, not a printed value. Blank lines part the entries; values can stand above or below the compound they belong to.

Key:
KB = assay: Cytotoxicity against human KB cells assessed as reduction in cell viability; assay type: functional, cell-based
NCI-H187 = assay: Cytotoxicity against human NCI-H187 cells assessed as reduction in cell viability; assay type: functional, cell-based
Plasmodium falciparum = assay: Antiplasmodial activity against multidrug-resistant Plasmodium falciparum K1 by [3H]-hypoxanthine incorporation assay; assay type: functional, organism-based
[1] = target: Glucagon-like peptide 1 receptor (Homo sapiens, UniProt P43220); assay: Agonist activity at human GLP1 receptor
Sequence of Glucagon-like peptide 1 receptor (P43220 whole entry): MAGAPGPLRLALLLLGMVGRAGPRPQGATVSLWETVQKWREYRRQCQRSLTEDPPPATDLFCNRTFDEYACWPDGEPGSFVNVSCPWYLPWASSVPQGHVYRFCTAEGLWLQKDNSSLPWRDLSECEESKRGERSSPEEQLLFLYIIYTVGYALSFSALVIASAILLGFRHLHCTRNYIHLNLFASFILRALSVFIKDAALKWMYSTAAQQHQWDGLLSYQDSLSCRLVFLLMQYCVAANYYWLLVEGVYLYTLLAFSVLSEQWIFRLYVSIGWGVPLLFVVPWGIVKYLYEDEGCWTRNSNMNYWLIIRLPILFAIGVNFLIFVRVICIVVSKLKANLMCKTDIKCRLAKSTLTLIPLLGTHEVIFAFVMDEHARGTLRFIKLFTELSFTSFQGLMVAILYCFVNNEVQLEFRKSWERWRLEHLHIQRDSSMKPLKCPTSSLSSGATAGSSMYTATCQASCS

Cathepsin L2 = target: T1, Cathepsin L2 (Homo sapiens, UniProt O60911); assay: Inhibition of recombinant human cathepsin V using Z-Phe-Arg-7-amido-4-methylcoumarin as substrate by fluorescence assay
T1 sequence (O60911 whole entry): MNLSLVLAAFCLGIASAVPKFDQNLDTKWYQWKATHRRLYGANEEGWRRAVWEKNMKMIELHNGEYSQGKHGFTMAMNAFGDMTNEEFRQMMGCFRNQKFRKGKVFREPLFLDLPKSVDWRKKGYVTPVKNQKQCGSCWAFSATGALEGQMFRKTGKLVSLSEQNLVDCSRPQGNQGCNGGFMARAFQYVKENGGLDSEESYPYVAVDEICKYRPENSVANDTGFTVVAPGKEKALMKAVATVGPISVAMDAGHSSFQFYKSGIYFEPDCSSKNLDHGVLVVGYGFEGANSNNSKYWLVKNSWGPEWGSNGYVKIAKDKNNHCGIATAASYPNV

[2] = Inhibition of yeast alpha-glucosidase using p-nitrophenyl-alpha-D-glucopyranoside as substarte preincubated for 0.5 hrs followed by substrate addition measured after 0.5 hrs; parameters: species or system Saccharomyces cerevisiae
Saccharomyces cerevisiae = assay: Inhibition of yeast alpha-glucosidase using p-nitrophenyl-alpha-D-glucopyranoside as substarte preincubated for 0.5 hrs followed by substrate addition measured after 0.5 hrs relative to control; conditions: concentration not given here
[3] = target: T2, DNA topoisomerase 2-alpha (Homo sapiens, UniProt P11388); assay: Inhibition of human topoisomerase 2 by fluorescence method
T2 sequence (P11388 whole entry): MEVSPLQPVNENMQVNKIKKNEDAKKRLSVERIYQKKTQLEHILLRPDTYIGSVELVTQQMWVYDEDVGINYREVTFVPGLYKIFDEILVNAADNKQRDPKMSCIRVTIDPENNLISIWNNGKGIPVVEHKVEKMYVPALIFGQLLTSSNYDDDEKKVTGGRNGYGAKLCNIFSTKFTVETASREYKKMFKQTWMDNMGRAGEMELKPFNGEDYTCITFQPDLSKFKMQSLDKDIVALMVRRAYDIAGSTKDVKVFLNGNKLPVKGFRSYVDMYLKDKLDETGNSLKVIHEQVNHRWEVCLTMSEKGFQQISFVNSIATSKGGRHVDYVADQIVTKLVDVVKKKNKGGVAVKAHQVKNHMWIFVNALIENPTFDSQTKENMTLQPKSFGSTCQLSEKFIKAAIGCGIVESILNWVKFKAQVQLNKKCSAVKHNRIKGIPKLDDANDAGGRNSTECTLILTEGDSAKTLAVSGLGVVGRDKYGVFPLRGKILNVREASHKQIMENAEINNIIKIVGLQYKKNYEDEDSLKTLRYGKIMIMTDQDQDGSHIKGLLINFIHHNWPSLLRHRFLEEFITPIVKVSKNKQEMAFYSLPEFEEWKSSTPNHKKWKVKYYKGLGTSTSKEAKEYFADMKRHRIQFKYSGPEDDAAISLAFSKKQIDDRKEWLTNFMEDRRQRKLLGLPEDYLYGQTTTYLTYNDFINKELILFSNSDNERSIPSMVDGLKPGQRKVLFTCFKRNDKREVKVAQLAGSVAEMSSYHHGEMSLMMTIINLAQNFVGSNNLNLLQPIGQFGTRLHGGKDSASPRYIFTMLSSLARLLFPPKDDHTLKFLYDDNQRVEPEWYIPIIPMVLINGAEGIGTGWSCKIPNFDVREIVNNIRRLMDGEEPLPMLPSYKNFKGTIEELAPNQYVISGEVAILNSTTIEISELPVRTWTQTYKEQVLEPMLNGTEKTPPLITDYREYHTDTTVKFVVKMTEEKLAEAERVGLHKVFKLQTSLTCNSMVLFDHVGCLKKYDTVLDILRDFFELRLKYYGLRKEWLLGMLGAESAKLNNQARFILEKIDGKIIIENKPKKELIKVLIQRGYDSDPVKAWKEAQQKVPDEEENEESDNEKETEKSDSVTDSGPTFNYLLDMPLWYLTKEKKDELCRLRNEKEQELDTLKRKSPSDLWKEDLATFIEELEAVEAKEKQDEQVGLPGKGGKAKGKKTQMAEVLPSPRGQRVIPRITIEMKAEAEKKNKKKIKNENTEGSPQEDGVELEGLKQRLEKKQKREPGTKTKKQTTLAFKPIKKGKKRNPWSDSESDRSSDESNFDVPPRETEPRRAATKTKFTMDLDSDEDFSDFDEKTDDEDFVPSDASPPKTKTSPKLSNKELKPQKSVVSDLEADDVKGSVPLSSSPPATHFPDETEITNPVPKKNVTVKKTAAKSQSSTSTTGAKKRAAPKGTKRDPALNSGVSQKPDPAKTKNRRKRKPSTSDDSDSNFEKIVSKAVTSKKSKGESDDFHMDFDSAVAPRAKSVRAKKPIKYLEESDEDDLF

Alpha glucosidase [4] = target: T3, Alpha glucosidase (Homo sapiens, UniProt O43451+P10253+P14410+Q2M2H8); assay: Inhibition of alpha-glucosidase (unknown origin); assay type: protein assay
Alpha glucosidase [5] = target: T3, Alpha glucosidase; assay: Inhibition of alpha-glucosidase (unknown origin) using 4-nitrophenyl alpha-D-glucopyranoside as substarte preincubated for 10 mins followed by substrate addition measured after 30 mins; assay type: protein assay
[6] = target: T2, DNA topoisomerase 2-alpha; assay: Inhibition of topoisomerase 2 (unknown origin)
[7] = target: Human immunodeficiency virus type 1 reverse transcriptase (Human immunodeficiency virus 1, UniProt Q72547); assay: Inhibition of HIV-1 reverse transcriptase

- EC50 [1]: 0.847 µM
Compound: COc1cc([C@H]2[C@](NC(=O)c3ccc(NC(=O)OC(C)(C)C)cc3)(C(=O)O)[C@@H](c3ccc(OC(=O)c4cccs4)c(OC)c3)[C@]2(NC(=O)c2ccc(NC(=O)OC(C)(C)C)cc2)C(=O)O)ccc1OC(=O)c1cccs1

- IC50 (Cathepsin L2): 1.4 µM
Compound: O=C(c1ccc(O)cc1O)[C@@H]1[C@H](c2ccc(O)cc2)c2cc(O)c(O)cc2[C@H](O)[C@@H]1C(=O)c1ccc(O)cc1

- IC50 (Cathepsin L2): 0.7 µM
Compound: O=C1c2ccc(O)cc2OC2c3cc(O)c(O)cc3[C@@H](c3ccc(O)cc3)[C@@H](C(=O)c3ccc(O)cc3O)C12 (stereo partly specified)

- IC50 [3]: 14.5 µM
Compound: O=C(/C=C/c1ccc(O)cc1)c1cc2c(cc1O)O[C@H](c1ccc(O)cc1)[C@H]2C(=O)c1ccc(O)cc1O

- IC50 (Alpha glucosidase [4]): 8.8 to 9.8 µM
Compound: C=C(C)C(COc1c2ccoc2cc2oc(=O)ccc12)OC(C)(C)C(O)COc1c2occc2c(OC)c2ccc(=O)oc12 (stereo unspecified)

- IC50 (Cathepsin L2): 0.42 µM
Compound: O=C(c1ccc(O)cc1O)[C@H]1[C@H](c2ccc(O)cc2)c2cc(O)c(O)cc2[C@H](O)[C@]1(O)C(=O)c1ccc(O)cc1

- EC50 [1]: 0.203 µM
Compound: COc1cc([C@H]2[C@](NC(=O)c3ccc(NC(=O)C(C)C)cc3)(C(=O)O)[C@@H](c3ccc(OC(=O)c4cccs4)c(OC)c3)[C@]2(NC(=O)c2ccc(NC(=O)C(C)C)cc2)C(=O)O)ccc1OC(=O)c1cccs1

- IC50 [6]: 2.1 µM
- IC50 [3]: 15.3 µM
Compound: O=C(/C=C/c1ccc(O)cc1)c1ccc2c(c1O)[C@H](C(=O)c1ccc(O)cc1O)[C@@H](c1ccc(O)cc1)O2

- IC50 (Alpha glucosidase [5]): 780 µg/mL (≈ 1210 µM)
Compound: O=c1ccc2ccc(Oc3cc4ccc(O)c(-c5c(OC6O[C@H](CO)[C@@H](O)[C@H](O)[C@H]6O)ccc6ccc(=O)oc56)c4oc3=O)cc2o1 (stereo partly specified)

- IC50 (Alpha glucosidase [4]): 8.8 to 9.8 µM
Compound: C=C(C)C(COc1c2occc2c(OC)c2ccc(=O)oc12)OC(C)(C)[C@H](O)COc1c2ccoc2cc2oc(=O)ccc12 (stereo partly specified)

- IC50 (Alpha glucosidase [4]): 8.8 to 9.8 µM
Compound: C=C(C)C(COc1c2occc2cc2ccc(=O)oc12)OC(C)(C)[C@H](O)COc1c2ccoc2cc2oc(=O)ccc12 (stereo partly specified)

Second part, the compound before the results:

Compound: C=CC(C)(C)c1c2c(c(O)c3c1OC(C)(C)C=C3)C=C([C@H]1CC(C)(C)Oc3c1c(O)c1ccc(=O)oc1c3C(C)(C)C=C)CO2
- IC50 (KB): 5.95 µg/mL (≈ 9.74 µM)
- IC50 (NCI-H187): 7.1 µg/mL (≈ 11.6 µM)

Compound: COc1cc(OC)c(OC)c2c1C[C@H]1[C@@H](/C=C/c3ccccc3)c3c(OC)cc(OC)c(OC)c3O[C@@]1(c1ccccc1)O2
- IC50 (Plasmodium falciparum): 3.02 to 4.21 µg/mL (≈ 5.06 to 7.06 µM)

Compound: COc1cc(OC)c([C@@H]2Oc3c(OC)c(OC)cc(OC)c3[C@@H](/C=C/c3ccccc3)[C@H]2C(=O)c2ccccc2)c(O)c1OC
- IC50 (Plasmodium falciparum): 3.02 to 4.21 µg/mL (≈ 4.93 to 6.87 µM)

Compound: Cc1c(-c2c(O)ccc3c(C)cc(=O)oc23)c(=O)oc2cc(O)ccc12
- IC50 [2]: 16.3 µM
- inhibition (Saccharomyces cerevisiae): > 65%

Compound: COc1cc(OC)c([C@@H]2Oc3c(OC)c(OC)cc(OC)c3[C@H](/C=C/c3ccccc3)[C@@H]2C(=O)c2ccccc2)c(O)c1OC
- IC50 (Plasmodium falciparum): 3.02 to 4.21 µg/mL (≈ 4.93 to 6.87 µM)

Compound: COc1cc2cc(Oc3cc(O[C@@H]4O[C@H](CO)[C@@H](O)[C@H](O)[C@H]4O[C@@H]4O[C@H](CO)[C@@H](O)[C@H](O)[C@H]4O)c4ccc(=O)oc4c3)c(=O)oc2cc1O
- IC50 (Alpha glucosidase [5]): 231 µg/mL (≈ 334 µM)

Compound: O=c1ccc2ccc(O)c(-c3c(OC4O[C@H](CO)[C@@H](O)[C@H](O)[C@H]4O)ccc4ccc(=O)oc34)c2o1 (stereo partly specified)
- IC50 (Alpha glucosidase [5]): 760 µg/mL (≈ 1570 µM)

Compound: Cc1cc(=O)oc2cc(O)c(-c3c(C)c4ccc(O)cc4oc3=O)cc12
- IC50 [2]: 36.8 µM
- inhibition (Saccharomyces cerevisiae): > 65%

Compound: COc1cc(OC)c2c(c1OC)C=C(C(=O)c1ccccc1)C1(C=C(c3ccccc3)Oc3c(OC)c(OC)cc(OC)c31)O2 (stereo unspecified)
- IC50 (Plasmodium falciparum): 3.02 to 4.21 µg/mL (≈ 4.96 to 6.92 µM)

Compound: Oc1ccc(/C=C/c2cc(O)c3c(-c4cc(O)cc(O)c4)c(-c4ccc(O)cc4)oc3c2)cc1
- IC50 [7]: 8 µM

Compound: COc1cc(OC)c2c(c1OC)O[C@H]1c3c(OC)cc(OC)c(OC)c3O[C@H](c3ccccc3)[C@H]1[C@@H]2/C=C/c1ccccc1 [DEPENDENSIN]
- IC50 (Plasmodium falciparum): 3.02 to 4.21 µg/mL (≈ 5.06 to 7.06 µM)
